In WO2019242687A1, “1,3-dioxane-4,6-dione compound, and preparation method, pharmaceutical composition, and application thereof” (Shanghai Institute of Materia Medica of CAS, priority 2018, dated 2018):
Positions count from the first letter of the chain named. Entries after “also recorded” stand apart in the source; their conditions may differ.

How the values were obtained:
[1] = target: T1, SIRT1 (Homo sapiens, UniProt Q96EB6); assay: SIRT1 enzyme activity test (deacetylase inhibition); assay type: biochemical
T1 sequence (Q96EB6 1-747): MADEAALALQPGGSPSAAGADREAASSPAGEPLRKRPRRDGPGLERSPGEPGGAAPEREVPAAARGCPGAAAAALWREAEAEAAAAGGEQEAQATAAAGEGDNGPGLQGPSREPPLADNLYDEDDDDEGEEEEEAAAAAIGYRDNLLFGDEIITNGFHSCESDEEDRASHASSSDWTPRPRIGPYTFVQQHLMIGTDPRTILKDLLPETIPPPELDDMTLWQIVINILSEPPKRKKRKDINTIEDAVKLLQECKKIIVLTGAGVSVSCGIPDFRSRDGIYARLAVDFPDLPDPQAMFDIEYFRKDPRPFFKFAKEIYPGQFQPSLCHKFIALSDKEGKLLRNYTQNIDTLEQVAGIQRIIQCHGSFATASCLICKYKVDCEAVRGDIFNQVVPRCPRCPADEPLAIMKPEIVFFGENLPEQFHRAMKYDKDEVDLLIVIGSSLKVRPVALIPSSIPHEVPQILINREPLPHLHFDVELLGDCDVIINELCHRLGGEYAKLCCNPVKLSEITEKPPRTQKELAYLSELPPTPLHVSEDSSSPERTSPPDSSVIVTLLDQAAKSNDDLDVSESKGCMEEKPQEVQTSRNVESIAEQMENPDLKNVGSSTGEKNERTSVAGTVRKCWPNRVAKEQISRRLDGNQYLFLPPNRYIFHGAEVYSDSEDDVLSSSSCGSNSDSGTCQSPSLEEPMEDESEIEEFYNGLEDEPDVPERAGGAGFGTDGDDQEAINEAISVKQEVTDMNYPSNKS

[2] = target: T1, SIRT1; assay: Enzyme kinetic reaction test (inhibition type, Michaelis-Menten and Lineweaver-Burk plots); assay type: biochemical
[3] = target: T2, mini-hSIRT1 protein (SIRT1 Cy5) (Homo sapiens, UniProt Q96EB6); assay: Microscale thermophoresis (MST) binding experiment
T2 sequence (Q96EB6 with tags, fused parts or gaps limits assumed): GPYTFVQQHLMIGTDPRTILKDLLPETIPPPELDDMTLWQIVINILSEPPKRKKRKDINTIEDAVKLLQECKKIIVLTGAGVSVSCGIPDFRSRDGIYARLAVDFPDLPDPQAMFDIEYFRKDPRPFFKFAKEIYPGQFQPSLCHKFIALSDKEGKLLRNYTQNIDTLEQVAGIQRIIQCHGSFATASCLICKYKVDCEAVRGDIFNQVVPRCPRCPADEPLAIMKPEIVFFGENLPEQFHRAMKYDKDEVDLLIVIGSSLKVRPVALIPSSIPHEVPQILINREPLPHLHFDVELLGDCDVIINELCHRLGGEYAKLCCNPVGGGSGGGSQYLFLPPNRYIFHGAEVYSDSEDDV

[4] = target: T3, SIRT1 wild type (Homo sapiens, UniProt Q96EB6); assay: Inhibitory constant on SIRT1 wild type; assay type: biochemical
T3 sequence (Q96EB6 1-747): T1 sequence (Q96EB6 1-747)

[5] = target: T4, SIRT1 N346A (Homo sapiens, UniProt Q96EB6, N346A); assay: Inhibitory constant on SIRT1 mutant N346A; assay type: biochemical
T4 construct: made in house
T4 sequence (Q96EB6 1-747 N346A): T1 sequence (Q96EB6 1-747) with N346A

[6] = target: T5, SIRT1 D348A (Homo sapiens, UniProt Q96EB6, D348A); assay: Inhibitory constant on SIRT1 mutant D348A; assay type: biochemical
T5 construct: made in house
T5 sequence (Q96EB6 1-747 D348A): T1 sequence (Q96EB6 1-747) with D348A

[7] = fixed Abz polypeptide, with increasing S3 concentration
[8] = fixed NAD+, with increasing S3 concentration

For COc1cc(C=C2C(=O)OC(c3ccccc3)OC2=O)cc(Br)c1O (stereo not drawn) [Compound S3, 5-(3-bromo-4-hydroxy-5-methoxybenzylidene) -2-phenyl-1,3-dioxane-4,6-dione], the “concentration dependence of SIRT1 inhibition” value ([1]; Figure 1, in vitro) was “以浓度依赖性方式抑制SIRT1酶活; also recorded: inhibits SIRT1 activity in a concentration-dependent manner”, the IC50 ([1]; Table 2, 1 μM SIRT1, 500 μM NAD+, 10 μM substrate peptide, 37 °C, 30 min) was 1310 ± 260 nM and the “Inhibition of SIRT1 deacylation (IC50)” value ([1]; Table 3, SITR1 [sic], 1 μM SIRT1, 500 μM NAD+, 10 μM substrate peptide) was 1.31 ± 0.26. For the same compound, the “apparent Michaelis constant Km′ for NAD+” value [2, 7] was “不变”, the “initial velocity V0, NAD+ varied” value [2, 7] was “减小” and the “apparent Michaelis constant Km′ for Abz polypeptide” value [2, 8] was “减小”. For the same compound, the “initial velocity V0, substrate Abz polypeptide varied” value [2, 8] was “减小”, the “type of inhibition toward NAD+” value ([2]; fixed acetylated peptide 30 μM, varied NAD+ 31.25-1000 μM, 0.5 μM SIRT1) was “非竞争性抑制; also recorded: NAD +的非竞争性抑制剂” and the “binding site of compound on SIRT1 relative to substrate polypeptide and NAD+ sites” value ([2]; inferred from kinetics) was “可能在底物多肽的结合位点; also recorded: 不在NAD +的结合位点”. The “type of inhibition toward NAD+” value ([3]; MST, Figure 3) was “non-competitive inhibitor of NAD +”, the “type of inhibition/binding toward Abz polypeptide” value ([3]; MST, Figure 3) was “competitive inhibitor of Abz polypeptide; also recorded: competitively binds to the binding site of the substrate polypeptide Abz” and the “Kd of binding to SIRT1 (change)” value ([3]; with 500 μM Abz polypeptide) was “increased”. The “binding curve with SIRT1 protein (shift), with Abz polypeptide” value ([3]; with 500 μM Abz polypeptide) was “shifted to the right”, the “binding curve with SIRT1 protein (shift), with NAD+” value ([3]; with 5 mM NAD+) was “did not change significantly” and the Ki [4] was 160 nM. The Ki ([5]; mutant N346A) was 2470 nM, the “sensitivity of mutant protein to compound S3” value ([5]; mutation of residue 346 (so in the source)) was “敏感性降低” and the Ki [6] was 4330 nM.
